This is an account of results in patent publication US10988478B1, “Pyrazolo[1,5a]pyrimidine derivatives as IRAK4 modulators” (Genentech, Inc., priority 2015, dated 2021).

As a reminder, the Ki is a measure of affinity in units of concentration, obtained from inhibition or displacement.

Chain of human IRAK4 (Q9NWZ3 whole entry, the tested form may be a part): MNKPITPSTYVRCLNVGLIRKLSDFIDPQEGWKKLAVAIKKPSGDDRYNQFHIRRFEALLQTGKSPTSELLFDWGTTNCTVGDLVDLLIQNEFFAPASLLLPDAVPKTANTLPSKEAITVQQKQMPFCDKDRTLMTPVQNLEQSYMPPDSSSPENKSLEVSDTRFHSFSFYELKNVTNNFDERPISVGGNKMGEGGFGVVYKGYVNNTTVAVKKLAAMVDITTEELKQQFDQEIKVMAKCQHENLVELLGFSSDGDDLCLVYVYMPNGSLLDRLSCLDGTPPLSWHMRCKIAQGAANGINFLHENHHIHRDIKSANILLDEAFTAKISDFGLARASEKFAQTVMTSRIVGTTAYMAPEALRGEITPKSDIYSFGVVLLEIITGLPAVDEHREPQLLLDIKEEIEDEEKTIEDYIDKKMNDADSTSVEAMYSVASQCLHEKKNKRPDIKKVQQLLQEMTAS

The assay concerns the target human IRAK4 (Homo sapiens (Human), UniProt Q9NWZ3). The assay can be described thus: IRAK4 kinase inhibition, Transcreener fluorescence polarization ADP assay. Type of assay: biochemical. The note with it: recombinant full-length His6-IRAK4; 125 uM ATP; 90 min; Ki computed using ATP Km 642 uM. As to the method: Compounds were assayed for inhibition of human IRAK4 and IRAK1 catalytic activity using recombinant enzyme produced from insect cells. Full-length IRAK4 protein, carrying an N-terminal His6-Tag, was obtained from Life Technologies (Carlsbad, Calif., USA). The IRAK1 construct was produced internally and was comprised of IRAK1 residues Arg194 to Ser712, preceded by an NH2-terminal His6 tag and the coding sequence for glutathione-S-transferase.
For `CC1(C)Cc2cc(NC(=O)c3cnn4cccnc34)c(N3CCC(n4ccnc4)CC3)cc2O1` [Example 206, N-(6-(4-(1H-imidazol-1-yl)piperidin-1-yl)-2,2-dimethyl-2,3-dihydrobenzofuran-5-yl)pyrazolo[1,5-a]pyrimidine-3-carboxamide], the inhibition constant Ki is 3.4 nM.

With `CC1(C)Cc2cc(NC(=O)c3cnn4cccnc34)c(N3CCCC(F)(F)CC3)cc2O1` [Example 207, N-(6-(4,4-difluoroazepan-1-yl)-2,2-dimethyl-2,3-dihydrobenzofuran-5-yl)pyrazolo[1,5-a]pyrimidine-3-carboxamide], the inhibitory constant (Ki) amounted to 17 nM.

On to `CC1(C)Cc2cc(NC(=O)c3cnn4cccnc34)c(N3C[C@@H]4[C@H](C3)[C@H]4C(N)=O)cc2O1` [Example 208, N-(6-((1R,5S,6r)-6-carbamoyl-3-azabicyclo[3.1.0]hexan-3-yl)-2,2-dimethyl-2,3-dihydrobenzofuran-5-yl)pyrazolo[1,5-a]pyrimidine-3-carboxamide], for which the Ki stood at 15 nM.

Consider `CNC(=O)[C@H]1[C@@H]2CN(c3cc4c(cc3NC(=O)c3cnn5cccnc35)CC(C)(C)O4)C[C@@H]21` [Example 212, N-(2,2-dimethyl-6-((1R,5S,6r)-6-(methylcarbamoyl)-3-azabicyclo[3.1.0]hexan-3-yl)-2,3-dihydrobenzofuran-5-yl)pyrazolo[1,5-a]pyrimidine-3-carboxamide], for which the Ki came to 56 nM.

With `CC1(C)Cc2cc(NC(=O)c3cnn4cccnc34)c(N3CCC4(CC3)CNC(=O)C4)cc2O1` [Example 213, N-(2,2-dimethyl-6-(3-oxo-2,8-diazaspiro[4.5]decan-8-yl)-2,3-dihydrobenzofuran-5-yl)pyrazolo[1,5-a]pyrimidine-3-], the Ki was 3 nM.

Consider `CC1(C)Cc2cc(NC(=O)c3cnn4cccnc34)c(N3CCCC3)cc2O1` [Example 214, N-(2,2-dimethyl-6-(pyrrolidin-1-yl)-2,3-dihydrobenzofuran-5-yl)pyrazolo[1,5-a]pyrimidine-3-carboxamide], for which the inhibition constant (Ki) came to 12 nM.

Turning to `CC1(C)Cc2cc(NC(=O)c3cnn4cccnc34)c(N3CC4C(CO)C4C3)cc2O1` (stereo not shown) [Example 215, N-(6-(6-(hydroxymethyl)-3-azabicyclo[3.1.0]hexan-3-yl)-2,2-azabicyclo[3.1.0]dimethyl-2,3-dihydrobenzofuran-5-yl)pyrazolo[1,5-a]pyrimidine-3-carboxamide], the inhibition constant Ki came to 5.4 nM.

As to `CC1(C)Cc2cc(NC(=O)c3cnn4cccnc34)c(N3CCC(C#N)CC3)cc2O1` [Example 216, N-(6-(4-cyanopiperidin-1-yl)-2,2-dimethyl-2,3-dihydrobenzofuran-5-yl)pyrazolo[1,5-a]pyrimidine-3-carboxamide], the Ki was found to be 3 nM.

Regarding `CC1(C)Cc2cc(NC(=O)c3cnn4cccnc34)c(N3CCC(F)(F)C3)cc2O1` [Example 217, N-(6-(3,3-difluoropyrrolidin-1-yl)-2,2-dimethyl-2,3-dihydrobenzofuran-5-yl)pyrazolo[1,5-a]pyrimidine-3-carboxamide], the Ki stood at 15 nM.

Take `CC1(C)Cc2cc(NC(=O)c3cnn4cccnc34)c(N3CCC(C(F)(F)F)CC3)cc2O1` [Example 218, N-(2,2-dimethyl-6-(4-(trifluoromethyl)piperidin-1-yl)-2,3-dihydrobenzofuran-5-yl)pyrazolo[1,5-a]pyrimidine-3-carboxamide]: the inhibition constant (Ki) was determined as 17 nM.

For `CC(C)C(=O)N1CCN(c2cc3c(cc2NC(=O)c2cnn4cccnc24)CC(C)(C)O3)CC1` [Example 219, N-(6-(4-isobutyrylpiperazin-1-yl)-2,2-dimethyl-2,3-dihydrobenzofuran-5-yl)pyrazolo[1,5-a]pyrimidine-3-carboxamide], the Ki was 82 nM.

For `CC(=O)N1CCCN(c2cc3c(cc2NC(=O)c2cnn4cccnc24)CC(C)(C)O3)CC1` [Example 220, N-(6-(4-acetyl-1,4-diazepan-1-yl)-2,2-dimethyl-2,3-dihydrobenzofuran-5-yl)pyrazolo[1,5-a]pyrimidine-3-carboxamide], the Ki is 75 nM.

Regarding `CN1CCN(c2cc3c(cc2NC(=O)c2cnn4cccnc24)CC(C)(C)O3)CC(O)C1` (stereo not shown) [Example 224, N-[6-(6-hydroxy-4-methyl-1,4-diazepan-1-yl)-2,2-dimethyl-3H-benzofuran-5-yl]pyrazolo[1,5-a]pyrimidine-3-carboxamide], the inhibition constant (Ki) was determined as 330 nM.

`CC(C)NC(=O)CN1CCN(c2cc3c(cc2NC(=O)c2cnn4cccnc24)CC(C)(C)O3)CC1` [Example 225, N-(6-(4-(2-(Isopropylamino)-2-oxoethyl)piperazin-1-yl)-2,2-dimethyl-2,3-dihydrobenzofuran-5-yl)pyrazolo[1,5-a]pyrimidine-3-carboxamide]: the Ki worked out at 45 nM.

In the case of `CC1(C)Cc2cc(NC(=O)c3cnn4cccnc34)c(N3CCN(C(C)(C)C(N)=O)CC3)cc2O1` [Example 226, N-(6-(4-(1-Amino-2-methyl-1-oxopropan-2-yl)piperazin-1-yl)-2,2-dimethyl-2,3-dihydrobenzofuran-5-yl)pyrazolo[1,5-a]pyrimidine-3-carboxamide], the inhibition constant Ki was found to be 6 nM.

With `C[C@@H]1CN(c2cc3c(cc2NC(=O)c2cnn4cccnc24)CC(C)(C)O3)C[C@H](C)N1CC(N)=O` [Example 227, N-(6-((3R,5S)-4-(2-Amino-2-oxoethyl)-3,5-dimethylpiperazin-1-yl)-2,2-dimethyl-2,3-dihydrobenzofuran-5-yl)pyrazolo[1,5-a]pyrimidine-3-carboxamide], the inhibition constant Ki was determined as 490 nM.

For the compound `CC1(C)Cc2cc(NC(=O)c3cnn4cccnc34)c(N3CCN(CC(=O)N4CCOCC4)CC3)cc2O1` [Example 228, N-(2,2-Dimethyl-6-(4-(2-morpholino-2-oxoethyl)piperazin-1-yl)-2,3-dihydrobenzofuran-5-yl)pyrazolo[1,5-a]pyrimidine-3-carboxamide], the Ki was 48 nM.

For `Cc1nccc(C2CCN(c3cc4c(cc3NC(=O)c3cnn5cccnc35)CC(C)(C)O4)C2)n1` (stereo not shown) [Example 229, N-(2,2-Dimethyl-6-(3-(2-methylpyrimidin-4-yl)pyrrolidin-1-yl)-2,3-dihydrobenzofuran-5-yl)pyrazolo[1,5-a]pyrimidine-3-carboxamide], the inhibition constant Ki is 260 nM.

`CC1(C)Cc2cc(NC(=O)c3cnn4cccnc34)c(N3CCN(CC4CCCO4)CC3)cc2O1` (stereo not shown) [Example 230, N-(2,2-Dimethyl-6-(4-((tetrahydrofuran-2-yl)methyl)piperazin-1-yl)-2,3-dihydrobenzofuran-5-yl)pyrazolo[1,5-a]pyrimidine-3-carboxamide]: the Ki is 18 nM.

Turning to `CC1(C)Cc2cc(NC(=O)c3cnn4cccnc34)c(N3CCN(CCn4ccnc4)CC3)cc2O1` [Example 231, N-(6-(4-(2-(1H-Imidazo1-1-yl)ethyl)piperazin-1-yl)-2,2-dimethyl-2,3-dihydrobenzofuran-5-yl)pyrazolo[1,5-a]pyrimidine-3-carboxamide], the inhibitory constant (Ki) is 3 nM.

For `CN(C)C(=O)CN1CCN(c2cc3c(cc2NC(=O)c2cnn4cccnc24)CC(C)(C)O3)CC1` [Example 232, N-(6-(4-(2-(Dimethylamino)-2-oxoethyl)piperazin-1-yl)-2,2-dimethyl-2,3-dihydrobenzofuran-5-yl)pyrazolo[1,5-a]pyrimidine-3-carboxamide], the inhibitory constant (Ki) was determined as 34 nM.

Turning to `CC1(C)Cc2cc(NC(=O)c3cnn4cccnc34)c(N3CCn4ccnc4C3)cc2O1` [Example 233], the inhibitory constant (Ki) is 100 nM.
